Measured values taken from patent US20240033737A1, “DEVICES AND METHODS FOR CONTINUOUS DIELECTROPHORESIS CELL SORTING TO ISOLATE DIFFERENT POPULATIONS OF CELLS, AND APPLICATIONS THEREOF” (The Regents of the University of California, priority 2022, published 2024).

How the values were obtained:
Format in all cases: cell-based
D54 cells [1] = experiment: XTT assay of cell numbers after plating and growth for 2 days; conditions: 5 μM ROCKi in DEP buffer vs DEP buffer without ROCKi, 6-hour incubation
Protocol: (§1) FIG. 2A-D presents optimization of buffer conditions for DEP-based sorting of GBM cells. (A) Viability of D54 cells immediately after 6-hour RT incubation in regular growth media, DEP buffer, or DEP buffer supplemented with 5 μM ROCKi was measured by trypan blue staining. […] (B) After 6-hour incubation in media or buffers, D54 cells were plated in normal growth conditions and the number of cells measured after 2 days by XTT assay. […] Acutely isolated cells (Media control, 0 h) served as a control. (D) D54 cells were plated after 6-hour incubation in buffers and after 1 day were exposed to TMZ to assess TMZ resistance. TMZ IC50 is shown as fold change relative to media control, 0 h, and no difference in TMZ resistance was detected across samples. Error bars show SD. N≥3, one-way ANOVA, Tukey post hoc for multiple comparisons, *p<0.05, **p<0.01, ***p<0.001, ****p<0.0001.
D54 cell viability studies conducted with a modified DEP buffer that included ROCKi. ROCK inhibitor (ROCKi) was included in the DEP buffer at concentrations ranging from 1-10 μM. […] Addition of 5 μM ROCKi to the DEP buffer improved D54 acute viability, as assessed by trypan blue staining, and led to greater than 90% viable cells (see FIG. 2A). An XTT assay was used to measure cell numbers after plating and growth for 2 days.

D54 cells [2] = experiment: D54 viability by trypan blue staining immediately after incubation in media or DEP buffer; conditions: for viability in the DEP buffer: 6-hour incubation
Protocol: (A) Schematic describes experimental paradigm to test D54 viability after incubation in cell culture media or DEP buffer. Adherent D54 cells were dissociated then resuspended in media or DEP buffer and incubated on ice or at room temperature (RT). Cell viability was tested immediately after incubation by trypan blue. Equivalent numbers of cells were plated per condition and adherent cells observed after 1-2 days by phase contrast microscopy to assess cell recovery. (B) Cell viability after 6-hour incubation remained high for all conditions. Viability of D54 cells in DEP buffer may be slightly lower than that of cells in media. N=1. (C) Phase-contrast images of D54 cells stained with trypan blue after 6-hour incubation show high cell viability and increased clustering of cells incubated in media at RT. (D) Phase contrast images of adherent D54 cells one day after 6-hour incubation in media or DEP buffer. Cells incubated in media at RT show the best recovery, indicated by cell number and cell morphology. (E) Phase contrast images of adherent D54 cells one day after 0-6 hour incubation in media or DEP buffer. Cell recovery decreases with increasing incubation time in DEP buffer.
as §1, with “N≥3, one-way ANOVA, Tukey post hoc for multiple comparisons, *p<0.05, **p<0.01, ***p<0.001, ****p<0.0001.” left out
(A) Viability of D54 cells immediately after 6-hour incubation in regular growth media, DEP buffer, or DEP buffer supplemented with 1, 5, or 10 μM ROCKi was measured by trypan blue staining. […]
(§2) DEP buffer (DB): 8.5% w/v sucrose, 0.3% w/v glucose, 0.725% RPMI. […] (B) Cells were plated after incubation and the confluency (% culture surface area covered by cells) of adherent cells measured 1 day later using ImageJ. […]
(§3) Assessing the viability of D54 cells in a DEP buffer used for sorting mouse and human neural stem and progenitor cells. […] Further, the effect of temperature of the buffer (ice or room temperature) on cell viability was also evaluated. […] After the 6-hour buffer incubation, the cells were plated under normal growth conditions and assessed by phase contrast imaging 1-2 days later to assess cell survival and growth. […]

D54 cells [3] = experiment: TMZ resistance (TMZ IC50 fold change) of cells plated after buffer incubation; conditions: 5 μM ROCKi in DEP buffer; cells plated in normal growth medium without ROCKi
Protocol: as §1
(A) Viability of D54 cells immediately after 6-hour incubation in regular growth media, DEP buffer, or DEP buffer supplemented with 1, 5, or 10 μM ROCKi was measured by trypan blue staining. Acutely isolated cells (Media control, 0 h) served as a control. […] (C) There was no significant difference in the diameters of D54 cells in any of the conditions. (D) There was no significant difference in TMZ resistance as measured by fold change in IC50 relative to acutely isolated cells (Media control, 0 h). Error bars show SD. […]

D54 cells [4] = experiment: Recovery of adherent cells after buffer incubation and plating (phase contrast imaging, confluency by ImageJ); conditions: 5 μM ROCKi in DEP buffer, 6 hours incubation, among DEP buffers, N=1
Protocol: (A) Schematic describes experimental paradigm to test D54 viability after incubation in cell culture media or DEP buffer. Adherent D54 cells were dissociated then resuspended in media or DEP buffer and incubated on ice or at room temperature (RT). Cell viability was tested immediately after incubation by trypan blue. Equivalent numbers of cells were plated per condition and adherent cells observed after 1-2 days by phase contrast microscopy to assess cell recovery. (B) Cell viability after 6-hour incubation remained high for all conditions. Viability of D54 cells in DEP buffer may be slightly lower than that of cells in media. N=1. […]
as §2, §3

C[C@@H](N)[C@H]1CC[C@H](C(=O)Nc2ccncc2)CC1 [ROCKi, Y27632]
cell numbers after plating and growth for 2 days (XTT) (D54 cells [1]): significantly increased cell numbers
viability in the DEP buffer (D54 cells [2]; 1 μM ROCKi in DEP buffer): improved viability
viable cells (acute viability, trypan blue) (D54 cells [2]; 5 μM ROCKi in DEP buffer, 6-hour RT incubation): greater than 90%
viability in the DEP buffer (D54 cells [2]; 5 μM ROCKi in DEP buffer): improved viability
best concentration for D54 cell viability (D54 cells [2]; ROCKi in DEP buffer at 1-10 μM): 5 µM
TMZ resistance (fold change in TMZ IC50) (D54 cells [3]): did not alter TMZ resistance
confluency of adherent cells 1 day after plating (D54 cells [4]): the most confluency
